The source of these data is patent US20090233979A1, “Indole Derivatives and Their Use as Thyroid Receptor Ligands” (KARO BIO AB, priority 2006, published 2009).

The target in one assay is T1, hTRβ (Homo sapiens, UniProt P10828).
T1 sequence (P10828 1-461): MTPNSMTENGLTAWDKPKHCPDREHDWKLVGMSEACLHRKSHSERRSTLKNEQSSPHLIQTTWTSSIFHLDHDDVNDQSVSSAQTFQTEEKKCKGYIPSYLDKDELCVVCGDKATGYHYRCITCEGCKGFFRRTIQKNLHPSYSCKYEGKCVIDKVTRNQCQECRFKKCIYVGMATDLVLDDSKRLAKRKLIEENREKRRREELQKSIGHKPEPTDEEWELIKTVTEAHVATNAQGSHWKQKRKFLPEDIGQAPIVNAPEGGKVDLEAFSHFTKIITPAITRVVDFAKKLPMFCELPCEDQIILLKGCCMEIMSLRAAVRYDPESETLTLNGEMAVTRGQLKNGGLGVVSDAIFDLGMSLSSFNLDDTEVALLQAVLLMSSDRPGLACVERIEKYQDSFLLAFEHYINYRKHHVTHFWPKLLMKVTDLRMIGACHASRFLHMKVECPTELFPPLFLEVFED
Nature of the assay: TR competition binding assay with filter separation. Conditions: for IC50: competition with tracer 125I-T3, full length hTRβ, read-out: TR-β IC50; for binding to the TR-β receptor and/or agonistic activity compared to compounds lacking a substituent in the 2-position on the indole ring: versus Comparative Examples 1, 3, 4. How it is done: TR Competition Binding Assay with Filter Separation
Compounds are tested for their ability to compete with the tracer ^125I-T3 for binding to full length hTRα and hTRβ. Receptor extracts and tracer are diluted in assay buffer (17 mM K2HPO4, 3 mM KH2PO4, 400 mM KCl, 1 mM MgCl2, 0.5 mM EDTA and 8.7% glycerol). ^125I-T3 is diluted to a final concentration of 0.2 nM and receptor is diluted to reach a final count in Trilux Microbeta of approximately 10000 ccpm. […] To 96 well microtiter plates are 100 μl tracer, 4 μl test compound dilution series and 100 μl receptor dilution added. The assay plates are incubated at +4° C. over night (app. 16 hrs incubation). Receptor bound and free tracer are separated over a glass fiber filter ([…] B, PerkinElmer)) on a Tomtec Cellharvester with 18 mM K2HPO4, 2 mM KH2PO4, 0.5 mM EDTA wash buffer. The filters are dried at 60° C. for 1 hour and then merged with a scintillant wax (MELTILEX, PerkinElmer) on a Wallac Microsealer before measuring in a Trilux Microbeta. IC50s, the concentration test compound needed to decrease tracer binding by 50 percent, are generated via analysis of data in XLfit version 2.0 or later with a four parameter logistic model.

The next assay has as its target T2, human ThRβ1 (Homo sapiens, UniProt P10828).
T2 construct: The cDNAs encoding the full length human ThRα1 and ThRβ1; expressed in transfected cells
T2 sequence (P10828 1-461): T1 sequence (P10828 1-461)
Nature of the assay: Reporter cell line (TRAF) assay, CHO/hThRβ1, alkaline phosphatase reporter. The class given is cell-based. To be noted: CHO/hThRβ1 reporter cells, 48 hours incubation; read-out: β % agonism. The source says: Vector Constructs, Generation of Reporter Cell Lines (TRAF), and Assay Procedure.
The cDNAs encoding the full length human ThRα1 and ThRβ1 were cloned in the mammalian expression vector pMT-hGH. The pDR4-ALP reporter vector contains one copy of the direct repeat sequence AGGTCA nnnnAGGTCA, fused upstream of the core promoter sequences of the mouse mammary tumor virus long terminal repeat (MMTV), replacing the glucocorticoid response elements. The DR4-MMTV promoter fragment was then cloned in the 5′ end of the cDNA encoding human placental alkaline phosphatase (ALP), followed in the 3′-end by the polyA-signal sequence of the human growth hormone gene. Chinese hamster ovary (CHO) K1 cells (ATCC No. CCL 61) were transfected in two steps, first with the receptor expression vectors pMT-hThRα1 and pMT-ThRβ1, respectively, and the drug resistance vector pSV2-Neo, and in the second step, with the reporter vector pDR4-ALP and the drug resistance vector pKSV-Hyg. Individual drug resistant clones were isolated and selected based on T3 inducibility. One stable reporter cell clone each of CHO/hThRα1 and CHO/hThRβ1 were chosen for further study in response to various thyroid hormone agonists.
CHO/hThRα1 and CHO/hThRβ1 were seeded in growth medium (Coon's/F12, 10% L-3,5,3′-triiodothyronine and L-thyroxine depleted FCS, 2 mM L-glutamine) in 96-well plates at 20×10^3 cells per well. After 24 hour incubation at 37° C. in humidified chambers, at 5% CO2, conditioned medium was replaced by induction medium (OptiMEM, 2 mM L-glutamine, […] gentamycin) and cells were exposed to the test compounds at serial dilutions, at final DMSO concentration of 0.5%, or to serial dilution of T3 (positive control), to assess agonist activity of test compounds.
In order to examine antagonistic effect of test compounds, CHO/hThRα1 and […] were exposed to serial dilution of the compounds in the presence of 1 nM T3 (CHO/hThRα1) or 3 nM T3 (CHO/hThRβ1).
After 48 hours incubation at 37° C. in humidified chambers at 5% CO2 the level of alkaline phosphatase expressed and secreted into the cell culture medium was analyzed by chemiluminescence on MicroBeta Trilux.

The structures appear in SMILES notation.

In the case of `COc1ccc(-c2[nH]c3ccc(Oc4c(Br)cc(CCC(=O)O)cc4Br)cc3c2C)cc1` [Example 3, 3-(3,5-dibromo-4-{[2-(4-methoxyphenyl)-3-methyl-1H-indol-5-yl]oxy}phenyl)propanoic acid], at hTRβ, the IC50 – broadly, the point on the concentration scale where inhibition reaches its midpoint – came to 7.16 nM and the “binding to the TR-β receptor and/or agonistic activity compared to compounds lacking a substituent in the 2-position on the indole ring” value is on record as “improved binding to the TR-β receptor and/or improved agonistic activity”. At human ThRβ1, the Emax amounted to 97.5%.

Regarding `CCOC(=O)CNc1cc(C)c(Oc2ccc3[nH]cc(C(C)C)c3c2)c(C)c1` [compound 3, reference compound], on hTRβ, the IC50 was found to be 326 nM. Further, the Emax on human ThRβ1 is 69.7%.

Regarding `Cc1cc(NCC(=O)O)cc(C)c1Oc1ccc2[nH]cc(C(C)C)c2c1` [compound 4, reference compound], at hTRβ, the IC50 was 43.1 nM. Also, the Emax at human ThRβ1 amounted to 39.7%.

Take `CCCc1c(-c2ccc(OC)cc2)[nH]c2ccc(Oc3c(Br)cc(CCC(=O)O)cc3Br)cc12` [Example 13, 3-(3,5-dibromo-4-{[2-(4-methoxyphenyl)-3-propyl-1H-indol-5-yl]oxy}phenyl)propanoic acid]: on hTRβ, the IC50 was 8.88 nM and the “binding to the TR-β receptor and/or agonistic activity compared to compounds lacking a substituent in the 2-position on the indole ring” value is on record as “improved binding to the TR-β receptor and/or improved agonistic activity”. Moreover, the Emax on human ThRβ1 came to 70.7%.

As to `CCc1c(-c2ccc3c(c2)OCO3)[nH]c2ccc(Oc3c(Cl)cc(CCC(=O)O)cc3Cl)cc12` [Example 8, 3-(4-{[2-(1,3-benzodioxol-5-yl)-3-ethyl-1H-indol-5-yl]oxy}-3,5-dichlorophenyl)propanoic acid], on hTRβ, the IC50 is 2.5 nM and the “binding to the TR-β receptor and/or agonistic activity compared to compounds lacking a substituent in the 2-position on the indole ring” value was “improved binding to the TR-β receptor and/or improved agonistic activity”. The Emax on human ThRβ1 was 76.9%.

As to `COc1ccc(-c2[nH]c3ccc(Oc4c(Cl)cc(CCC(=O)O)cc4Cl)cc3c2C(C)C)cc1` [Comparative Example 2, 3-{3,5-Dichloro-4-[3-isopropyl-2-(4-methoxy-phenyl)-1H-indol-5-yloxy]-phenyl}-propionic acid, reference compound], the IC50 at hTRβ is 51.5 nM. Moreover, the Emax on human ThRβ1 came to 80.2%.

As for `CCc1c(-c2ccc(OC)cc2)[nH]c2ccc(Oc3c(Br)cc(CCC(=O)O)cc3Br)cc12` [Example 10, 3-(3,5-dibromo-4-{[2-(4-methoxyphenyl)-3-ethyl-1H-indol-5-yl]oxy}phenyl)propanoic acid], on hTRβ, the IC50 turned out to be 2.77 nM and the “binding to the TR-β receptor and/or agonistic activity compared to compounds lacking a substituent in the 2-position on the indole ring” value was “improved binding to the TR-β receptor and/or improved agonistic activity”. Besides, the Emax at human ThRβ1 turned out to be 79.7%.

`CCc1c(-c2ccc3c(c2)OCO3)[nH]c2ccc(Oc3c(Br)cc(CCC(=O)O)cc3Br)cc12` [Example 9, 3-(4-{[2-(1,3-benzodioxol-5-yl)-3-ethyl-1H-indol-5-yl]oxy}-3,5-dibromophenyl)propanoic acid]: on hTRβ, the IC50 came out at 0.33 nM and the “binding to the TR-β receptor and/or agonistic activity compared to compounds lacking a substituent in the 2-position on the indole ring” value is given as “improved binding to the TR-β receptor and/or improved agonistic activity”. Further, the Emax at human ThRβ1 amounted to 70.3%.
